Measured values as given in US20220241378A1, “COMPOSITIONS AND METHODS FOR TREATMENT OF CHRONIC GRANULOMATOUS DISEASE” (priority 2019, published 2022).

Tested on: C57BL/6 and p47phox-/- mice subjected to DSS-induced colitis
Assay: DSS-induced colitis in C57BL/6 and p47phox-/- mice
Type: in vivo
Experimental: In vivo models mimicking human pathology such as lung and gut inflammation were prepared. A model of lung inflammation was tested using C57BL/6 and p47phox-/- mice. The mice were infected with A. fumigatus intranasally and treated them with Tβ4 for 7 consecutive days starting a week after the infection. LC3-II (FIG. 1F) and DAPK1 (FIG. 1G) expression were both defective in p47phox-/- mice, but restored by Tβ4 and ablated (LC3-II) upon siTβ4 (FIGS. 10A and 10B). In addition, gut inflammation was tested using the same mouse model. Acute colitis in p47phox-/- mice was initiated by administering […] in drinking water for 7 days followed by 7 days of DSS-free autoclaved water. Subsequently, Tβ4 was therapeutically administered daily for 7 days, after DSS treatment, at the time at which mice started to lose weight. Consistent with previous findings (de Luca et al., 2014), LC3-II (FIG. 1H) and DAPK1 (FIG. 1I) expression were both defective in the colon ofp47phox-/- mice with colitis as opposed to WT mice but restored upon treatment with T134 (FIGS. 1H and 1I). DAPK1 expression in colon lysates of C57BL/6 and p47^phox-/- mice subjected to DSS-induced colitis for a week and treated intraperitoneally with 5 mg/kg Tβ4 for 7 consecutive days after DSS treatment, n=6-10 mice per group. Data are presented as mean ±SD and are representative of two experiments. Mice were categorized as Naive (uninfected or untreated mice) or None (infected mice). For immunoblotting, normalization was performed on mouse β-actin or Gapdh and corresponding pixel density or ratio is depicted. For immunofluorescence, nuclei were counterstained with DAPI. Photographs were taken with a high-resolution microscope (Olympus BX51), 40× and 100× magnification. LC3 mean fluorescence intensity (MFI) was measured with the ImageJ software. In FIGS. 1F-1H, n=6-10 mice per group. Data are presented as mean ±SD and are representative of two experiments. Naïve, uninfected or untreated mice. None, infected mice.
Dextran Sulfate Sodium (DSS) (2.5% wt/vol, […]; MP Biomedicals) was administered in drinking water ad libitum for 7 days. Fresh solution was replaced on day 3. Mice were injected with 5 mg/kg of Tβ4 every day intraperitoneally in concomitance with (days 0→7) or after (days 7→14) DSS administration. Control received the diluent alone. Weight loss, stool consistency, and faecal blood were recorded daily. Upon necropsy (7 and 14 days after DSS administration), tissues were collected for histology and cytokine analysis. Colonic sections were stained with Hematoxylin and Eosin. Colitis disease activity index was calculated daily for each mouse based on weight loss, occult blood, and stool consistency. A score of 1-4 was given for each parameter as described (McNamee et al., 2011 Interleukin 37 expression protects mice from colitis. Proc Natl Acad Sci U S A 108:16711-16716).
For immunoblotting, organs or cells were lysed in RIPA buffer. The lysate was separated in sodium dodecyl sulfate-polyacrylamide gel electrophoresis (SDS-PAGE) and transferred to a nitrocellulose membrane. The membranes were incubated with the following primary antibodies at 4 °C overnight: anti-DAPK1 (antibodies-online.com), anti-Rubicon (Cell Signaling), anti-Tβ4 and anti-NLRP3 (Abcam), anti-LC3B (Cell Signaling or Abcam). Normalization was performed by probing the membranes with mouse anti-β-actin and anti-Gapdh antibodies (Sigma-Aldrich). Normalization was performed on mouse β-actin or Gapdh and corresponding pixel density is depicted. LC3-II band density was normalized to LC3-I to obtain ratio. Chemiluminescence detection was performed with LiteAblot Plus chemiluminescence substrate (EuroClone S.p.A.), using the ChemiDocTM XRS+ Imaging System (Bio-Rad) and quantification was obtained by densitometry image analysis using Image Lab 5.1 software (Bio-Rad).
Real-time RT-PCR was performed using CFX96 Touch Real-Time PCR Detection System and SYBR Green chemistry (Bio-Rad). […]

Thymosin β4 [Tβ4] was tested, and the “HIF-1α expression in the colon” value (5 mg/kg i.p. 7 consecutive days after DSS (FIG. 2H)) was “restoration”, the weight change (Tβ4 5 mg/kg i.p. after DSS (FIG. 5A)) was “weight regain” and the “disease activity index scores” value (Tβ4 5 mg/kg i.p. after DSS (FIG. 5B)) was “decreased”. For the same substance, the “inflammatory pathology and tissue architecture (H&E colon histology)” value (Tβ4 5 mg/kg i.p. after DSS (FIG. 5C)) was “amelioration”, the “NLRP3 expression in colon” value (Tβ4 5 mg/kg i.p. after DSS (FIG. 5D)) was “decreased” and the “anti-inflammatory cytokines (TGF-β)” value (colon (FIG. 5G)) was “up-regulation”. The Cldn1 expression (colon (FIG. 5H)) was “greatly promoted”, the Ocln expression (colon (FIG. 5H)) was “greatly promoted” and the “inflammatory cytokine levels (IL-1β, MPO, TNF-α, IL-17A)” value (colon homogenates (FIGS. 5E and 5F)) was “decreased”. The “expression of angiogenesis-related genes (Angpt2, Tie2, Vegfa, Fgf2, Epo, Cxcr4)” value (colon homogenates of p47phox-/- mice (FIG. 3D)) was “upregulation”, the “LC3-II expression in colon” value (p47phox-/- mice with colitis, 5 mg/kg i.p. 7 consecutive days after DSS (FIG. 1H)) was “restored” and the “DAPK1 expression in colon” value (p47phox-/- mice with colitis, 5 mg/kg i.p. 7 consecutive days after DSS (FIG. 1I)) was “restored”.
